Patent publication US8969554B2, “6-acyl-1,2,4-triazine-3,5-dione derivative and herbicides” (Kumiai Chemical Industry Co., Ltd., priority 2010, dated 2015)

Key:
Assay type in all cases: in vivo
Setaria viridis = test: Herbicidal activity by field foliage treatment (Test example 3); conditions: 1000 g effective component per hectare, day 14 after the treatment;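 further: index 0 to 10 in 10% steps of herbicidal effect with 10 meaning complete death and 0 below 10%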
Method in brief: (§1)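 Potted field-soil plants grown 2 weeks in a greenhouse were sprayed over the whole foliage with diluted wettable powder at 1000 L/ha, delivering 1000 g active ingredient per hectare. Herbicidal effect scored by visual criteria 14 days after treatment.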

Indian millet [1] = test: Herbicidal activity by field soil treatment (Test example 2); design: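 index 0 to 10 in 10% steps of herbicidal effect with 10 meaning complete death and 0 below 10%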; conditions: 1000 g effective component per hectare, day 21 after the treatment
Method in brief: (§2)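 Seeds of the four weeds sown in field soil in pots; wettable powder diluted in water sprayed pre-emergence on soil surface at 1000 L/ha, giving 1000 g active per hectare. Greenhouse grown; herbicidal effect scored on day 21 after treatment by set criteria.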

Echinochloa crus-galli [2] = test: as above; design: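 index 0 to 10 in 10% steps of herbicidal effect with 10 meaning complete death and 0 below 10%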; conditions: 1000 g effective component per hectare, day 21 after the treatment
Method in brief: as §2

A. retroflexus [3] = test: as above; design: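 index 0 to 10 in 10% steps of herbicidal effect with 10 meaning complete death and 0 below 10%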; conditions: 1000 g effective component per hectare, day 21 after the treatment
Method in brief: as §2

Monochoria vaginalis = test: Herbicidal activity by paddy field soil treatment (Test Example 1); design: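 index 0 to 10 in 10% steps of herbicidal effect with 10 meaning complete death and 0 below 10%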; conditions: 1000 g of effective component per hectare, evaluated on day 21 after the treatment, criteria of Table 72
Method in brief: (§3)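 Paddy soil in pots sown with seeds, flooded to 3 cm; next day wettable powder diluted in water applied to water surface at 1000 g active ingredient/ha. Greenhouse-grown; herbicidal effect scored on day 21 after treatment against rating criteria.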

Echinochloa oryzicola = test: as above; design: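 index 0 to 10 in 10% steps of herbicidal effect with 10 meaning complete death and 0 below 10%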; conditions: 1000 g of effective component per hectare, evaluated on day 21 after the treatment, criteria of Table 72
Method in brief: as §3

Scirpus juncoides Rocxb. = test: as above; design: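 index 0 to 10 in 10% steps of herbicidal effect with 10 meaning complete death and 0 below 10%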; conditions: applied on water surface, 1000 g of effective component per hectare, day 21 after the treatment
Method in brief: as §3

Indian millet [4] = test: Herbicidal activity by field foliage treatment (Test example 3); design: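 index 0 to 10 in 10% steps of herbicidal effect with 10 meaning complete death and 0 below 10%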; conditions: 1000 g effective component per hectare, day 14 after the treatment
Method in brief: (§4)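 Field soil in pots; Indian millet and A. retroflexus grown 2 weeks in greenhouse, then sprayed over whole plant with water-diluted wettable powder at 1000 L/ha, giving 1000 g active component/ha. Herbicidal effect scored by set criteria on day 14 after treatment.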

A. retroflexus [5] = test: as above; design: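 index 0 to 10 in 10% steps of herbicidal effect with 10 meaning complete death and 0 below 10%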; conditions: 1000 g effective component per hectare, day 14 after the treatment
Method in brief: as §4

Echinochloa crus-galli [6] = test: as above; design: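 index 0 to 10 in 10% steps of herbicidal effect with 10 meaning complete death and 0 below 10%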; conditions: 1000 g effective component per hectare, day 14 after the treatment
Method in brief: as §1

foxtail = test: Herbicidal activity by field soil treatment (Test example 2); conditions: 1000 g effective component per hectare, day 21 after the treatment;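 further: index 0 to 10 in 10% steps of herbicidal effect with 10 meaning complete death and 0 below 10%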
Method in brief: as §2

SMILES	herbicidal effect index, Setaria viridis (Setaria viridis)	herbicidal effect index, Abutilon theophrasti (Indian millet [1])	herbicidal effect index, Echinochloa crus-galli (Echinochloa crus-galli [2])	herbicidal effect index, Amaranthus retroflexus (A. retroflexus [3])	Herbicidal effects index number, Monochoria vaginalis (Monochoria vaginalis)	Herbicidal effects index number, Echinochloa oryzicola (Echinochloa oryzicola)	herbicidal effect index, S. juncoides Rocxb. (Scirpus juncoides Rocxb.)	herbicidal effect index, Abutilon theophrasti (Indian millet [4])	herbicidal effect index, Amaranthus retroflexus (A. retroflexus [5])	herbicidal effect index, Echinochloa crus-galli (Echinochloa crus-galli [6])	herbicidal effect index, Setaria viridis (foxtail)
Cn1nc(C(=O)C2=C(O)CCCC2=O)c(=O)n(-c2cccc(Cl)c2Cl)c1=O [I-83]	10	10	9	10	10	10	10	10	10	10	9
CCc1ccccc1-n1c(=O)c(C(=O)C2=C(O)CCCC2=O)nn(C)c1=O [I-288]	10	9	10	10	10	10	10	10	10	9	9
Cc1cccc(OC(F)(F)F)c1-n1c(=O)c(C(=O)C2=C(O)CCCC2=O)nn(C)c1=O [I-285]	9	10	10	10	10	10	10	7	8	9	10
Cn1nc(C(=O)C2=C(O)CCCC2=O)c(=O)n(-c2ccc([N+](=O)[O-])cc2)c1=O [I-68]	8	10	10	10	10	10	10	10	10	10	10
Cc1cccc(-n2c(=O)c(C(=O)C3=C(O)CCCC3=O)nn(C)c2=O)c1 [I-58]	10	10	10	10	10	10	10	10	10	10	8
CC(C)c1ccccc1-n1c(=O)c(C(=O)C2=C(O)CCCC2=O)nn(C)c1=O [I-286]	10	9	10	10	10	10	9	9	10	10	9
Cn1nc(C(=O)C2=C(O)CCCC2=O)c(=O)n(C2CC2)c1=O [I-16]	9	9	9	10	9	9	10	9	10	9	9
Cn1nc(C(=O)C2=C(O)CCCC2=O)c(=O)n(-c2c(Cl)cccc2Cl)c1=O [I-86]	9	9	10	10	10	10	10	10	10	9	9
Cc1cccc(C)c1-n1c(=O)c(C(=O)C2=C(O)CCCC2=O)nn(C)c1=O [I-92]	10	10	9	10	10	10	10	10	10	10	9
CCn1c(=O)c(C(=O)C2=C(O)CCCC2=O)nn(C)c1=O [I-2]	10	10	10	10	10	10	10	10	10	9	7
C=CCn1c(=O)c(C(=O)C2=C(O)CCCC2=O)nn(C)c1=O [I-11]	9	9	10	10	10	10	10	9	10	9	7
Cc1ccc(-n2c(=O)c(C(=O)C3=C(O)CCCC3=O)nn(C)c2=O)c(Cl)c1 [I-128]	10	10	8	10	9	8	10	10	10	9	9
